From patent publication US20120142784A1, “LYSINE-SPECIFIC DEMETHYLASE 1(LSD1) IS A BIOMARKER FOR BREAST CANCER” (priority 2009, published 2012)

Assays:
[1] = test system: liposarcoma cell lines FU-DDLS-1, MLS1765, T449, T778, MLS402, SW872; test: MTT cell growth assay, liposarcoma cell lines; details: six liposarcoma cell lines, 72 h
[2] = test system: synovial sarcoma cell lines SYO-1, HS-SY-II, 1273/99, Fuji and CME-1; test: MTT cell growth assay, synovial sarcoma cell lines; details: five synovial sarcoma cell lines, 72 h
[3] = test system: MCF7, MDA-MB 453, MDA-MB 231 and T47D breast cancer cells; test: MTT cell growth assay, breast cancer cell lines; type: cell-based; details: four breast cancer cell lines, treatment for 72 hours
Procedure: (§1) MCF7, MDA-MB 453 and MDA-MB 231 breast cancer cells were cultivated in DMEM, T47D breast cancer cells were cultivated in RPMI, GLC-1, GLC-2 and H460 R lung carcinoma cells were cultivated in IMDM, and sarcoma cells 1273 were cultivated in Häm's F12. All media were supplemented with 10% FCS, L-glutamine and antibiotics.
(§2) An 3-([…])-2,5-diphenyltetrazolium bromide (MTT) assay was performed according to the manufacturer's protocol (Roche, Mannheim, Germany).

[4] = test system: global H3K4 dimethylation; test: Western blot of H3K4 dimethylation in breast cancer cells; type: cell-based; details: 10 and or 30 μM, 24 h
Procedure: Protein lysates were extracted from cells and blotted as described in Schulte et al. [Schulte, J. H. et al. (2009), see above] The membranes were incubated for 1-2 hours using the following antibodies and dilutions: α-LSD1 (Novus Biologicals) 1:1000; α-K4H3me2 (Abcam, Cambridge, UK) 1:1000; β-actin (Sigma-Aldrich, Hamburg, Germany) 1:5000; Her2/erbB2 (DAKO), 1:1000. […] Anal. Biochem., 295, 17-21].

LSD1 protein = LSD1 protein (Homo sapiens, UniProt O60341); details: breast cancer cells, 10 and or 30 μM, 24 h
Procedure: The membranes were incubated for 1-2 hours using the following antibodies and dilutions: α-LSD1 (Novus Biologicals) 1:1000; α-K4H3me2 (Abcam, Cambridge, UK) 1:1000; β-actin (Sigma-Aldrich, Hamburg, Germany) 1:5000; Her2/erbB2 (DAKO), 1:1000.

[5] = test system: GLC-1, GLC-2 and H460 R lung carcinoma cells; details: three lung carcinoma cell lines, 72 hours
Procedure: as §1, §2

sarcoma cells 1273 = details: sarcoma cell line 1273, 72 hours
Procedure: as §1, §2

| SMILES | cell growth (MTT assay, viable cells) [1] | cell growth (MTT assay, viable cells) [2] | cell growth (MTT assay, viable cells) [3] | global H3K4 dimethylation (Western blot) [4] | LSD1 protein levels (Western blot) (LSD1 protein) | cell growth (MTT assay, viable cells) [5] | cell growth (MTT assay, % viability) (sarcoma cells 1273) |
| --- | --- | --- | --- | --- | --- | --- | --- |
| C#CCN(C)Cc1ccccc1 [pargyline] | impaired cell growth in these sarcoma cell lines in a concentration dependent manner | impaired cell growth in these sarcoma cell lines in a concentration dependent manner | – | – | – | – | – |
| C#CCN(C)CCCOc1ccc(Cl)cc1Cl [clorgyline] | impaired cell growth in these sarcoma cell lines in a concentration dependent manner | impaired cell growth in these sarcoma cell lines in a concentration dependent manner | impaired cell growth in a dose-dependent manner | accumulation of H3K4 dimethylation | not affected | – | – |
| N[C@@H]1C[C@H]1c1ccccc1 (racemic) [tranylcypromine] | impaired cell growth in these sarcoma cell lines in a concentration dependent manner | impaired cell growth in these sarcoma cell lines in a concentration dependent manner | impaired cell growth in a dose-dependent manner | accumulation of H3K4 dimethylation | – | impaired cell growth | impaired cell growth |
